Converted amounts (≈) assume the structure as drawn. “Also recorded” adds a separate entry of the source.

The term EC50 denotes the midpoint of the concentration-response curve.

The nature of series [1]: Equilibrium solubility in aqueous buffers. It counts as physicochemical. As for the experimental part:
The pH 2.0 buffer was prepared by combining 50 mL of 0.2 M KCl with 150 mL of H2O, and then adjusting to pH 2.0 with 10 N HCl. […] The pH 7.4 buffer was prepared by combining 50 mL of 0.2 M KH2PO4 with 150 mL of H2O, and then adjusting to pH 7.4 with 10 N NaOH. At least 0.3 mg of powder for each lead compound was combined with 1 mL of each buffer to make a ≥0.3 mg/mL mixture. These samples were shaken on a Thermomixer® overnight at room temperature. The samples were then centrifuged for 10 minutes at 14,000 rpm. The supernatant was sampled and diluted in duplicate 10-, 100-, 1,000-, and 10,000-fold into a mixture of 1:1 buffer:acetonitrile (ACN) prior to analysis. […] Standard concentrations ranged from 1.0 μM to 0.3 nM.

Series [2] relates to KLF15 promoter. The series can be described thus: KLF15 promoter activity in human podocytes, KLF15 agonist combined with dexamethasone. Type of series: cell-based. To be noted: for KLF15 promoter activity, combination with DEX: vs DEX 1 μM.
For series [3], the system named is human podocytes. In words: Podocyte survival (Renilla, cell viability) after LPS treatment. It counts as cell-based. Particulars: LPS-treated human podocytes. The procedure: (§1) FIG. 10A-D show representative data illustrating the dose-response curve and EC50 (FIG. 10A), KLF15 reporter activity (FIG. 10B), and Renilla activity (cell viability) (FIG. 10C) in LPS-treated HP, and the therapeutic efficacy in abrogating albuminuria (biomarker of kidney disease) in LPS-treated mice (FIG. 10D).
(§2) After the synthesis of these novel analogues, a primary screening assay was conducted.

The subject of series [4] is KLF15 promoter. In words: KLF15 reporter human podocyte assay (HTS, dose-response, primary screening). It counts as cell-based. To be noted: for maximal KLF15 reporter activity: dose escalation, at similar concentrations to DEX; for EC50: dose-response curve, human podocytes, luciferase/renilla. The procedure: A stable reporter assay directed at KLF15 promoter region (4.3 kb region) was generated in human podocytes, a fragment of human KLF15 promoter upstream of the start codon, by amplifying and subcloning it into the firefly luciferase reporter plasmid (co-transfection with renilla to serve as internal controls). KLF15 promoter activity is measured as a ratio of luciferase to renilla activity. Using this reporter cell line, a cell-based HTS assay was developed using recently reported cell-seeding methodology specific to cultured podocytes (16).

Series [5] concerns human liver microsomes. The series can be described thus: Stability in human liver microsomes. To be noted: human liver microsomes. The procedure: Mixed-gender human liver microsomes (Lot #1010420) were purchased from XenoTech. The reaction mixture, minus NADPH, was prepared as described below. […] The control compound, testosterone, was run simultaneously with the lead compounds in a separate reaction. The reaction mixture (without cofactor) was equilibrated in a shaking water bath at 37° C. for 3 minutes. The reaction was initiated by the addition of the cofactor, and the mixture was incubated in a shaking water bath at 37° C. Aliquots (100 μL) were withdrawn at 0, 10, 20, 30, and 60 minutes. Each lead compound and testosterone samples were immediately combined with 400 μL of ice-cold 50/50 acetonitrile (ACN)/H2O containing 0.1% formic acid and internal standard to terminate the reaction. The samples were then mixed and centrifuged to precipitate proteins. All samples were assayed by LC-MS/MS using electrospray ionization. The peak area response ratio (PARR) to internal standard was compared to the PARR at time 0 to determine the percent remaining at each time point. Half-lives and clearance were calculated using GraphPad software, fitting to a single-phase exponential decay equation.
A general note: Microsomes from liver hold many membrane-bound enzymes, among them those of drug oxidation.

For series [6], the system named is human podocytes. The series can be described thus: Toxicity to human podocytes in primary screening assay (Renilla, cell viability). Type of series: cell-based. To be noted: 1 μM, 24 hr. As for the experimental part:
as §2

The subject of series [7] is LPS-treated mice. In words: LPS-induced albuminuria murine model. Particulars: vs DMSO. It counts as in vivo. The procedure: Referring to FIG. 10D, C57BL/6 mice were treated with lipopolysaccharide (LPS) at dose of 10 μg/g in two divided doses 24 hours apart intraperitoneally to induce podocyte injury and albuminuria.
The nature of series [8]: Stability in pH 7.4 phosphate buffer. It counts as physicochemical. Particulars: 37° C., 1 μM. As for the experimental part:
Studies were carried out in pH 7.4 phosphate buffer. The buffer was prepared by combining 50 mL of 0.2 M KH2PO4 with 150 mL of H2O, and then adjusting to pH 7.4 with 10 N NaOH. The buffer was adjusted to pH 7.4 prior to initiating the experiments. […] Aliquots of the DMSO solutions were dosed into 0.5 mL of matrix, which had been pre-warmed to 37° C., at a final lead compound concentration of 1 μM. Individual tubes were dosed for each timepoint. The vials were kept in a benchtop Thermomixer for the duration of the experiment. At each time point (0, 30, 60, and 120 minutes), an equal volume of acetonitrile was added to the appropriate tubes. Samples were stored at 4° C. until the end of the experiment. After the final time point was sampled, the plate was mixed and then centrifuged at 3,000 rpm for 10 minutes. Aliquots of the supernatant were removed, diluted 1:1 into distilled water, and analyzed by LC-MS/MS.

In series [9] the test system is KLF15 reporter. The series can be described thus: KLF15 reporter activity in LPS-treated human podocytes (podocyte stress model). Type of series: cell-based. The procedure:
as §1, §2

Series [10] deals with Caco-2 cells (clone C2BBe1). In words: Caco-2 permeability. Type of series: in vitro ADME. Particulars: for Papp AVG / Papp R1 / Recovery: 5 μM, 120 minutes. The procedure:
Caco-2 cells (clone C2BBe1) were obtained from American Type Culture Collection (Manassas, VA). Cell monolayers were grown to confluence on collagen-coated, microporous membranes in 12-well assay plates. Details of the plates and their certification are shown below. The permeability assay buffer was Hanks' balanced salt solution containing 10 mM HEPES and 15 mM glucose at a pH of 7.4. The buffer in the receiver chamber also contained 1% bovine serum albumin. The dosing solution concentration was 5 μM of lead compound in the assay buffer. Cell monolayers were dosed on the apical side (A-to-B) or basolateral side (B-to-A) and incubated at 37° C. with 5% CO2 in a humidified incubator. Samples were taken from the donor and receiver chambers at 120 minutes. Each determination was performed in duplicate. The flux of lucifer yellow was also measured post-experimentally for each monolayer to ensure no damage was inflicted to the cell monolayers during the flux period. […] The apparent permeability (Papp) and percent recovery were calculated and provided.
A general note: Caco-2 cells form a polarised layer with tight junctions and transporters.

Series [11] relates to human podocytes. The series can be described thus: KLF15 and synaptopodin expression and actin stress fibers in LPS-treated human podocytes. To be noted: LPS conditions, vs DMSO-treated podocytes. Type of series: cell-based.
Series [12] has as its system Db/db mice on the FVB/N background. The series can be described thus: db/db murine model of progressive diabetic kidney disease. It counts as in vivo. To be noted: subcutaneous minipump, 0.85 μg/day for 14 days. From the text: Db/db mice on the FVB/N background were utilized as a murine model of progressive diabetic kidney disease (DKD), where there is significant podocyte injury and glomerulosclerosis.

For series [13], the system named is IL-17R signaling.
Series [14] concerns KLF15 promoter mutated at the GR binding site. The series can be described thus: GR-mutant KLF15 reporter assay. Type of series: cell-based, human. (Reporter assays use an easily measured gene product as a stand-in for the process of interest.)
Series [15] deals with human podocytes. In words: Cell viability (renilla activity, MTT assay) in ADR-treated cultured human podocytes. Type of series: cell-based. Particulars: vs K-9, K-15, DEX, DMSO.
Series [16] deals with KLF15. In words: KLF15 activity in ADR-treated cultured human podocytes. It counts as cell-based. To be noted: nonpermissive conditions 37° C., vs DMSO.
[17] abbreviates: pH 2, room temperature overnight.
[18] abbreviates: pH 4, room temperature overnight.
The mark [19] stands for this setting: pH 7.4, room temperature overnight.
The mark [20] stands for this setting: C57BL/6 mice, LPS 10 μg/g, subcutaneous minipump 3.5 μg/day for 48 hours.

As to `CSc1ccc(NC(=O)Nc2ccc(C)nc2)cc1` [BT503], in [1] (setting [17]), the “Solubility AVG” value was found to be 343 µM (≈ 93.8 µg/mL) and the “Solubility R1” value stood at 332 µM (≈ 90.8 µg/mL). For the same compound, in [1] (setting [18]), the “Solubility AVG” value amounted to 17.3 µM (≈ 4.73 µg/mL) and the “Solubility R1” value stood at 17.4 µM (≈ 4.76 µg/mL). Moreover, in series [1] (setting [19]), the “Solubility AVG” value is 34.5 µM (≈ 9.43 µg/mL) and the “Solubility R1” value turned out to be 31.6 µM (≈ 8.64 µg/mL). Moreover, the “KLF15 promoter activity, single agent” value in series [2] (alone (DEX 1 μM), vs DMSO-treated human podocytes) is listed as “significantly induced KLF15 promoter activity”. Moreover, the “KLF15 promoter activity, combination with DEX” value in [2] (compound 10 nM + DEX 0.5 μM) is on record as “synergistic effect”. The “KLF15 promoter activity, combination with DEX” value in [2] (compound 100 nM + DEX 0.5 μM) is “synergistic effect”. Moreover, in series [2] (compound 0.5 μM + DEX 0.5 μM), the “KLF15 promoter activity, combination with DEX” value is on record as “synergistic effect”. The “podocyte survival after LPS treatment” value in series [3] was “improved; also recorded: improve podocyte survival”. For the same compound, in series [4] (1 μM, 24 hr, vs DMSO), the “KLF15 reporter activity, primary screening assay” value is listed as “significantly induced KLF15 reporter activity”. Further, in [4], the “maximal KLF15 reporter activity” value was “higher maximal KLF15 reporter activity” and the 50% effective concentration (EC50) is roughly 7.1 nM. In [5] (1 μM, 37° C.), the Half-Life was determined as 13 min, the “Percent Remaining 0 min” value stood at 100, the “Percent Remaining 10 min” value is listed as 60.1 and the “Percent Remaining 20 min” value was found to be 35.3. Besides, in [5] (1 μM, 37° C.), the “Percent Remaining 30 min” value is given as 18.5 and the “Percent Remaining 60 min” value came out at 3.3. Further, the “CLint (intrinsic clearance)” value in series [5] (Clint = k/P) turned out to be 0.107 mL/min/mg protein. In addition, in [6], the “toxicity to human podocytes” value is reported as “no observed toxicity”. Moreover, the albuminuria result in series [7] (setting [20]) was “significantly reduced albuminuria”. Besides, in series [8], the “Percent Remaining 0 min” value is recorded as 100, the “Percent Remaining 30 min” value was determined as 90.6, the “Percent Remaining 60 min” value worked out at 87.6 and the “Percent Remaining 120 min” value stood at 80.5. Also, the “KLF15 reporter activity after LPS treatment” value in [9] is recorded as “improved KLF15 reporter activity”. Also, in [10] (A-to-B), the “Papp AVG” value is reported as 10.7 10^−6 cm/s, the “Papp R1” value is reported as 13.1 10^−6 cm/s and the Recovery is on record as 59.7%. In [10] (B-to-A), the “Papp AVG” value is on record as 9.7 10^−6 cm/s, the “Papp R1” value was 9.06 10^−6 cm/s and the Recovery is given as 69%. Further, in [10] (Caco-2), the “Efflux Ratio” value amounted to 0.909; the “Significant Efflux” value was “No (Significant Efflux: ER ≥ 2.0 and Papp (B-to-A) ≥ 1.0 × 10^−6 cm/s)”. The “Absorption Potential Classification” value in [10] (Caco-2, from Papp (A-to-B)) was “High (Papp (A-to-B) ≥ 1.0 × 10^−6 cm/s: High)”.

As for `CSc1ccc(NC(=O)Nc2cc(C)ccn2)cc1` [Compound K-7], in series [2] (K-7 combined with DEX, dose-response curves), the “DEX dose required to induce KLF15 reporter activity” value is on record as “reduced the DEX dose required to induce KLF15 reporter activity”. In series [11], the KLF15 expression result was “restored”, the “actin stress fiber formation” value is “restored” and the synaptopodin expression entry is recorded as “restored”. In addition, the “podocyte survival after LPS treatment” value in [3] is “improved”. The podocyte effacement result in series [12] (PAS staining and TEM) is recorded as “attenuated podocyte effacement”. Besides, in [12] (quantified with ImageJ), the “glomerular basement membrane (GBM) thickness” value is on record as “reduced” and the glomerular volume entry is “reduced glomerular volume”. Also, in [4], the “maximal KLF15 reporter activity” value was “higher maximal KLF15 reporter activity” and the concentration giving a half-maximal response (EC50) was roughly 11.9 nM. For the same compound, the albuminuria result in [7] (5 mg/kg every 12 hours, LPS-proteinuric mice) is “significant improvement in albuminuria”. For the same compound, the albuminuria result in series [7] (setting [20]) is recorded as “significantly reduced albuminuria”. The “genes involved in IL-17R and NF-κB signaling, chemokine/inflammatory signaling and fibrosis pathways (RNA-seq enrichment)” value in series [13] (K-7 vs DMSO in LPS-treated podocytes) was “significant decrease”. Moreover, in series [13] (cultured human podocytes, LPS treatment), the “transcripts downstream of IL-17R signaling (CSF2, CSF3, CXCL2, CXCL3, CCL2, IL1β)” value is recorded as “suppressed”. For the same compound, the “KLF15 reporter activity with KLF15 promoter mutated at the GR binding site” value (shortened to “KLF15 reporter activity … at the GR binding site”) in [14] is “induce KLF15 reporter activity independent of GR signaling”. Also, in series [15], the “cell viability (renilla activity and MTT assay)” value is “significantly improved”. In series [16], the KLF15 activity entry is given as “restored KLF15 activity”. Further, the “KLF15 reporter activity after LPS treatment” value in series [9] is recorded as “improved KLF15 reporter activity”.

As to `Nc1ccccc1-n1nc2ccc3ccccc3c2n1` [Compound K-9], in [4], the EC50 is roughly 76.2 nM. Also, in [14], the “KLF15 reporter activity … at the GR binding site” value is on record as “induce KLF15 reporter activity independent of GR signaling”. Also, the KLF15 activity result in [16] is reported as “restored KLF15 activity”.

In [4], `O=C(Nc1ccc2ccccc2c1)c1ccc(Cl)cc1Cl` [Compound K-15] gave an EC50 of roughly 10.9 nM. In addition, the “KLF15 reporter activity … at the GR binding site” value in series [14] was “induce KLF15 reporter activity independent of GR signaling”. Also, the KLF15 activity result in [16] is “restored KLF15 activity”.

The values above are taken from patent publication US12269803B2, “Krüppel-like factor 15 (KLF15) small molecule agonists in kidney disease” (United States Government as represented by the Department …, priority 2020, dated 2025).
